System: not listed separately
Assay: Permeability of the compound at pH 5.5 by PAMPA
Type: ADME
Details: read-out: permeability

| SMILES | Papp |
| --- | --- |
| CCCCc1nc(=O)c(S(=O)(=O)c2ccccc2)c(O)n1-c1c(OC)cccc1OC | 14.1 ×10⁻⁶ cm/s |
| COc1cccc(OC)c1-n1c(COC(C)C)nc(=O)c(S(=O)(=O)c2ccc(-c3ccc(F)nc3)cc2)c1O | 7.5 ×10⁻⁶ cm/s |

The remaining lines, values ahead:

| Papp | SMILES |
| --- | --- |
| 20.2 ×10⁻⁶ cm/s | CCCCc1nc(=O)c(S(=O)(=O)c2ccc(-c3cccnc3)cc2)c(O)n1-c1c(OC)cccc1OC |
| 41.8 ×10⁻⁶ cm/s | CCCCc1nc(=O)c(S(=O)(=O)c2ccc(-c3ccc(F)cc3)cc2)c(O)n1-c1c(OC)cccc1OC |

System: not listed separately
Assay: Cmax in rat at 1 mg/kg, po
Type: ADME, organism-based
Set-up: route oral, dose 1 mg/kg
Details: in vivo

| SMILES | Cmax |
| --- | --- |
| CCOCc1nc(O)c(-c2nnc(Cc3ccc(Cl)cn3)o2)c(O)c1-c1c(OC)cccc1OC [BMS-986224] | 5.3 µM |

System: not listed separately
Assay: Metabolic stability in human liver microsomes assessed as parent compound remaining incubated for 10 mins in presence of NADPH
Type: ADME, Microsome
Details: read-out: Stabilty

| SMILES | remaining at 10 min |
| --- | --- |
| CCCCc1nc(=O)c(S(=O)(=O)c2ccccc2)c(O)n1-c1c(OC)cccc1OC | 89% |
| COc1cccc(OC)c1-n1c(COC(C)C)nc(=O)c(S(=O)(=O)c2ccc(-c3ccc(F)nc3)cc2)c1O | 84% |

The remaining lines, values ahead:

| remaining at 10 min | SMILES |
| --- | --- |
| 72% | CCCCc1[nH]c(=O)c(S(=O)(=O)c2ccc(-c3cccnc3OC)cc2)c(O)c1-c1c(OC)cccc1OC |
| 88% | CCCCc1nc(=O)c(S(=O)(=O)c2ccc(-c3cccnc3)cc2)c(O)n1-c1c(OC)cccc1OC |
| 100% | CCCCc1nc(=O)c(S(=O)(=O)c2ccc(-c3ccc(F)cc3)cc2)c(O)n1-c1c(OC)cccc1OC |

System: not listed separately
Assay: Half life in rat at 1 mg/kg, po
Type: ADME, organism-based
Details: in vivo

| SMILES | half-life |
| --- | --- |
| CCOCc1nc(O)c(-c2nnc(Cc3ccc(Cl)cn3)o2)c(O)c1-c1c(OC)cccc1OC [BMS-986224] | 2.3 h |

System: not listed separately
Assay: Metabolic stability in rat liver microsomes assessed as parent compound remaining incubated for 10 mins in presence of NADPH
Type: ADME, Microsome
Details: read-out: Stabilty

| SMILES | remaining at 10 min |
| --- | --- |
| CCCCc1nc(=O)c(S(=O)(=O)c2ccccc2)c(O)n1-c1c(OC)cccc1OC | 93% |
| COc1cccc(OC)c1-n1c(COC(C)C)nc(=O)c(S(=O)(=O)c2ccc(-c3ccc(F)nc3)cc2)c1O | 30% |

Other lines, results leading:

| remaining at 10 min | SMILES |
| --- | --- |
| 3% | CCCCc1nc(=O)c(S(=O)(=O)c2ccc(-c3cccnc3)cc2)c(O)n1-c1c(OC)cccc1OC |
| 5% | CCCCc1nc(=O)c(S(=O)(=O)c2ccc(-c3ccc(F)cc3)cc2)c(O)n1-c1c(OC)cccc1OC |

System: not listed separately
Assay: in vivo
Details: rat, po, 1 mg/kg

| SMILES | AUC(0-inf) |
| --- | --- |
| CCOCc1nc(O)c(-c2nnc(Cc3ccc(Cl)cn3)o2)c(O)c1-c1c(OC)cccc1OC [BMS-986224] | 15.5 µM·h |

Biological target: T1, Apelin receptor (Homo sapiens, UniProt P35414)
T1 sequence (P35414 whole entry): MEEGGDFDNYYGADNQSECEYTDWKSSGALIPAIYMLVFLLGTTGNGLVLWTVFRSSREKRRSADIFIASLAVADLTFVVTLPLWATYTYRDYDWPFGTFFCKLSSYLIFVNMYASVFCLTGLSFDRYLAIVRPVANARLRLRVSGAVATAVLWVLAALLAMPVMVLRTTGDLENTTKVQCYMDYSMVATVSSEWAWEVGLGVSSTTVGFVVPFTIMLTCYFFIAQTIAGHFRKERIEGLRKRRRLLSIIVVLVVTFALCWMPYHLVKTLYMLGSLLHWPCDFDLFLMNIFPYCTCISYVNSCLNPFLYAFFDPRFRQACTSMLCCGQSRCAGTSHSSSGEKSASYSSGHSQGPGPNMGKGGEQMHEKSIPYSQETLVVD
Assay: Agonist activity at human APJ receptor assessed as effect on cAMP accumulation by cAMP-Glo assay
Type: functional
Details: not given

| SMILES | EC50 |
| --- | --- |
| COc1cccc(OC)c1-n1c(-c2cncc(C)c2)nc(=O)c(S(=O)(=O)c2ccc(C3CC3)cc2)c1O | 5 nM |
| COc1cccc(OC)c1-n1c(C2CCCC2)nc(=O)c(S(=O)(=O)c2ccc(C3CC3)cc2)c1O | 0.3 nM |
| CCCCc1nc(=O)c(S(=O)(=O)c2ccccc2)c(O)n1-c1c(OC)cccc1OC | 0.5 nM |
| COc1cccc(OC)c1-n1c(COC(C)C)nc(=O)c(S(=O)(=O)c2ccc(-c3ccc(F)nc3)cc2)c1O | 0.01 nM |

The remaining lines, values ahead:

| EC50 | SMILES |
| --- | --- |
| 0.03 nM | CCCCc1[nH]c(=O)c(S(=O)(=O)c2ccc(-c3cccnc3OC)cc2)c(O)c1-c1c(OC)cccc1OC |
| 17 nM | CCCCc1[nH]c(=O)c(S(=O)(=O)c2ccc(-c3ccc(F)cc3)cc2)c(O)c1-c1c(OC)cccc1OC |
| 0.04 nM | CCCCc1nc(=O)c(S(=O)(=O)c2ccc(-c3cccnc3)cc2)c(O)n1-c1c(OC)cccc1OC |
| 0.7 nM | CCCCc1[nH]c(=O)c(S(=O)(=O)c2ccc(-c3ccc(F)nc3)cc2)c(O)c1-c1c(OC)cccc1OC |
| 0.08 nM | CCCCc1nc(=O)c(S(=O)(=O)c2ccc(-c3ccc(F)cc3)cc2)c(O)n1-c1c(OC)cccc1OC |

Biological target: T2, Apelin receptor (Rattus norvegicus, UniProt Q9JHG3)
T2 sequence (Q9JHG3 whole entry): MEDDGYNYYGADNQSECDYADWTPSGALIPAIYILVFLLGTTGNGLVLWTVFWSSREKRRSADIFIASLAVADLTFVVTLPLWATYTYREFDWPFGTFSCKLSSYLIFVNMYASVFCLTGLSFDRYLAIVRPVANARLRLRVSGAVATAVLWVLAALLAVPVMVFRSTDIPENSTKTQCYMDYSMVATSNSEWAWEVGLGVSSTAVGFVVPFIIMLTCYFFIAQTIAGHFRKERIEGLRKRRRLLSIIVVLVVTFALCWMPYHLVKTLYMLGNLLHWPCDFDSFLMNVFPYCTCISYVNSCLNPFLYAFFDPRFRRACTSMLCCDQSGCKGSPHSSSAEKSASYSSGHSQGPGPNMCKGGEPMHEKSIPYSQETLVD
Assay: Agonist activity at rat APJ receptor assessed as effect on cAMP accumulation by cAMP-Glo assay
Type: functional
Details: not given

| SMILES | EC50 |
| --- | --- |
| COc1cccc(OC)c1-n1c(-c2cncc(C)c2)nc(=O)c(S(=O)(=O)c2ccc(C3CC3)cc2)c1O | 10 nM |
| COc1cccc(OC)c1-n1c(C2CCCC2)nc(=O)c(S(=O)(=O)c2ccc(C3CC3)cc2)c1O | 1.5 nM |
| CCCCc1nc(=O)c(S(=O)(=O)c2ccccc2)c(O)n1-c1c(OC)cccc1OC | 0.9 nM |
| COc1cccc(OC)c1-n1c(COC(C)C)nc(=O)c(S(=O)(=O)c2ccc(-c3ccc(F)nc3)cc2)c1O | 0.02 nM |

Results, then the compound that gave them:

| EC50 | SMILES |
| --- | --- |
| 0.7 nM | CCCCc1[nH]c(=O)c(S(=O)(=O)c2ccc(-c3cccnc3OC)cc2)c(O)c1-c1c(OC)cccc1OC |
| 72 nM | CCCCc1[nH]c(=O)c(S(=O)(=O)c2ccc(-c3ccc(F)cc3)cc2)c(O)c1-c1c(OC)cccc1OC |
| 0.05 nM | CCCCc1nc(=O)c(S(=O)(=O)c2ccc(-c3cccnc3)cc2)c(O)n1-c1c(OC)cccc1OC |
| 12 nM | CCCCc1[nH]c(=O)c(S(=O)(=O)c2ccc(-c3ccc(F)nc3)cc2)c(O)c1-c1c(OC)cccc1OC |
| 0.02 nM | CCCCc1nc(=O)c(S(=O)(=O)c2ccc(-c3ccc(F)cc3)cc2)c(O)n1-c1c(OC)cccc1OC |

System: not listed separately
Assay: Permeability of the compound at pH 7.4 by PAMPA
Type: ADME
Details: read-out: permeability

| SMILES | Papp |
| --- | --- |
| CCCCc1nc(=O)c(S(=O)(=O)c2ccccc2)c(O)n1-c1c(OC)cccc1OC | 0.15 ×10⁻⁶ cm/s |
| COc1cccc(OC)c1-n1c(COC(C)C)nc(=O)c(S(=O)(=O)c2ccc(-c3ccc(F)nc3)cc2)c1O | 0.4 ×10⁻⁶ cm/s |

The remaining lines, values ahead:

| Papp | SMILES |
| --- | --- |
| 0.6 ×10⁻⁶ cm/s | CCCCc1nc(=O)c(S(=O)(=O)c2ccc(-c3cccnc3)cc2)c(O)n1-c1c(OC)cccc1OC |
| 13.2 ×10⁻⁶ cm/s | CCCCc1nc(=O)c(S(=O)(=O)c2ccc(-c3ccc(F)cc3)cc2)c(O)n1-c1c(OC)cccc1OC |

System: not listed separately
Assay: Metabolic stability in mouse liver microsomes assessed as parent compound remaining incubated for 10 mins in presence of NADPH
Type: ADME, Microsome
Details: read-out: Stabilty

| SMILES | remaining at 10 min |
| --- | --- |
| CCCCc1nc(=O)c(S(=O)(=O)c2ccccc2)c(O)n1-c1c(OC)cccc1OC | 79% |
| COc1cccc(OC)c1-n1c(COC(C)C)nc(=O)c(S(=O)(=O)c2ccc(-c3ccc(F)nc3)cc2)c1O | 90% |

Other lines, results leading:

| remaining at 10 min | SMILES |
| --- | --- |
| 24% | CCCCc1[nH]c(=O)c(S(=O)(=O)c2ccc(-c3cccnc3OC)cc2)c(O)c1-c1c(OC)cccc1OC |
| 57% | CCCCc1nc(=O)c(S(=O)(=O)c2ccc(-c3cccnc3)cc2)c(O)n1-c1c(OC)cccc1OC |
| 47% | CCCCc1nc(=O)c(S(=O)(=O)c2ccc(-c3ccc(F)cc3)cc2)c(O)n1-c1c(OC)cccc1OC |

System: not listed separately
Assay: AUC (0 to 24 hrs) in rat at 1 mg/kg, po
Type: ADME, organism-based
Set-up: time < 24 hr, route oral, dose 1 mg/kg
Details: in vivo

| SMILES | AUC(0-t) at 24 h |
| --- | --- |
| CCOCc1nc(O)c(-c2nnc(Cc3ccc(Cl)cn3)o2)c(O)c1-c1c(OC)cccc1OC [BMS-986224] | 16 µM·h |

Biological target: T3, Apelin receptor (Mus musculus, UniProt Q9WV08)
T3 sequence (Q9WV08 whole entry): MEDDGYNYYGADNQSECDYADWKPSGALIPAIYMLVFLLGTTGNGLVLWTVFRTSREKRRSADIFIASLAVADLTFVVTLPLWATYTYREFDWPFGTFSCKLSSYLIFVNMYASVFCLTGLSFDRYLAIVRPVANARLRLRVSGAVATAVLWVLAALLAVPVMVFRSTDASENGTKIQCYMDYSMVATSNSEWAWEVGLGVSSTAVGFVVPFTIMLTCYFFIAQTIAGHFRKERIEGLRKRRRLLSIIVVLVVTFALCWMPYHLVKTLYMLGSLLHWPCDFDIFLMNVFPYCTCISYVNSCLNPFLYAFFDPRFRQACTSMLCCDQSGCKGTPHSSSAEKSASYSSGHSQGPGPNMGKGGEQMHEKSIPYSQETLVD
Assay: Agonist activity at mouse APJ receptor assessed as effect on cAMP accumulation by cAMP-Glo assay
Details: not given

| SMILES | EC50 |
| --- | --- |
| COc1cccc(OC)c1-n1c(-c2cncc(C)c2)nc(=O)c(S(=O)(=O)c2ccc(C3CC3)cc2)c1O | 5 nM |
| COc1cccc(OC)c1-n1c(C2CCCC2)nc(=O)c(S(=O)(=O)c2ccc(C3CC3)cc2)c1O | 0.4 nM |
| CCCCc1nc(=O)c(S(=O)(=O)c2ccccc2)c(O)n1-c1c(OC)cccc1OC | 1 nM |
| COc1cccc(OC)c1-n1c(COC(C)C)nc(=O)c(S(=O)(=O)c2ccc(-c3ccc(F)nc3)cc2)c1O | 0.03 nM |
| CCOCc1nc(O)c(-c2nnc(Cc3ccc(Cl)cn3)o2)c(O)c1-c1c(OC)cccc1OC [BMS-986224] | 0.027 nM |

Second part, the compound after the results:

| EC50 | SMILES |
| --- | --- |
| 0.2 nM | CCCCc1[nH]c(=O)c(S(=O)(=O)c2ccc(-c3cccnc3OC)cc2)c(O)c1-c1c(OC)cccc1OC |
| 34 nM | CCCCc1[nH]c(=O)c(S(=O)(=O)c2ccc(-c3ccc(F)cc3)cc2)c(O)c1-c1c(OC)cccc1OC |
| 0.05 nM | CCCCc1nc(=O)c(S(=O)(=O)c2ccc(-c3cccnc3)cc2)c(O)n1-c1c(OC)cccc1OC |
| 5 nM | CCCCc1[nH]c(=O)c(S(=O)(=O)c2ccc(-c3ccc(F)nc3)cc2)c(O)c1-c1c(OC)cccc1OC |
| 0.1 nM | CCCCc1nc(=O)c(S(=O)(=O)c2ccc(-c3ccc(F)cc3)cc2)c(O)n1-c1c(OC)cccc1OC |

— ChEMBL document CHEMBL4808235, “Identification of 6-hydroxy-5-phenyl sulfonylpyrimidin-4(1H)-one APJ receptor agonists” (Bioorg Med Chem Lett, 2021)
